Laboratory results published in patent US10590123B2, “Pesticidally active amide heterocyclic derivatives with sulphur containing substituents” (SYNGENTA PARTICIPATIONS AG, priority 2014, dated 2020).

Assays:
Assay type in all cases: in vivo
[1] = system: Spodoptera littoralis (Egyptian Cotton Leaf Worm); assay: Example B1: Activity against Spodoptera littoralis, sprayed cotton leaf discs; details: foliar, 72 h, application rate 200 ppm, L1 larvae, 3 days after infestation, read-out: control in at least one of the three categories (mortality, anti-feedancy or growth inhibition)
Experimental: Example B1: Activity Against Spodoptera littoralis (Egyptian Cotton Leaf Worm)
Cotton leaf discs were placed on agar in 24-well microtiter plates and sprayed with aqueous test solutions prepared from 10′000 ppm DMSO stock solutions. After drying the leaf discs were infested with five L1 larvae. The samples were assessed for mortality, anti-feedant effect, and growth inhibition in comparison to untreated samples 3 days after infestation. Control of Spodoptera littoralis by a test sample is when at least one of mortality, anti-feedant effect, and growth inhibition is higher than the untreated sample.

[2] = system: Plutella xylostella (Diamond Back Moth); assay: Example B3: Activity against Plutella xylostella, artificial diet; details: 120 h, application rate 200 ppm, L2 larvae, 5 days after infestation, read-out: effect in at least one of the two categories (mortality or growth inhibition)
Experimental: Example B3: Activity Against Plutella xylostella (Diamond Back Moth)
24-well microtiter plates with artificial diet were treated with aqueous test solutions prepared from 10′000 ppm DMSO stock solutions by pipetting. After drying, the plates were infested with L2 larvae (10 to 15 per well). The samples were assessed for mortality and growth inhibition in comparison to untreated samples 5 days after infestation.

[3] = system: Diabrotica Balteata (Corn Root Worm); assay: Example B4: Activity against Diabrotica balteata, sprayed maize sprouts; details: 96 h, application rate 200 ppm, L2 larvae, 4 days after infestation, read-out: effect in at least one of the two categories (mortality or growth inhibition)
Experimental: Example B4: Activity Against Diabrotica Balteata (Corn Root Worm)
Maize sprouts, placed on an agar layer in 24-well microtiter plates were treated with aqueous test solutions prepared from 10′000 ppm DMSO stock solutions by spraying. After drying, the plates were infested with L2 larvae (6 to 10 per well). The samples were assessed for mortality and growth inhibition in comparison to untreated samples 4 days after infestation.

[4] = system: Euschistus heros (Neotropical Brown Stink Bug); assay: Example B7: Activity against Euschistus heros, sprayed soybean leaf; details: 120 h, application rate 200 ppm, N-2 nymphs, 5 days after infestation
Experimental: Example B7: Activity Against Euschistus heros (Neotropical Brown Stink Bug)
Soybean leaf on agar in 24-well microtiter plates were sprayed with aqueous test solutions prepared from 10′000 ppm DMSO stock solutions. After drying the leaf were infested with N-2 nymphs. The samples were assessed for mortality 5 days after infestation.

CCSc1cc(-c2ccc(Cl)cc2)cnc1C(=O)N(C)c1nnc(C(F)(F)F)s1 [Compound P1, 5-(4-chlorophenyl)-3-ethylsulfanyl-N-methyl-N-[5-(trifluoromethyl)-1,3,4-thiadiazol-2-yl]pyridine-2-carboxamide]
≥ 80%: percent control (mortality, anti-feedant effect or growth inhibition) at 200 ppm [1] | percent effect (mortality or growth inhibition) at 200 ppm [2] | percent effect (mortality or growth inhibition) at 200 ppm [3] | mortality at 200 ppm [4]

CCS(=O)(=O)c1ccc(-c2cnc(C(=O)N(C)c3nnc(C(F)(F)F)s3)c(S(=O)(=O)CC)c2)cc1 [Compound P3]
≥ 80%: percent control (mortality, anti-feedant effect or growth inhibition) at 200 ppm [1] | percent effect (mortality or growth inhibition) at 200 ppm [2] | percent effect (mortality or growth inhibition) at 200 ppm [3]

CCS(=O)(=O)c1cc(-n2ccc(C(F)(F)F)n2)cnc1C(=O)Nc1nnc(C(F)(F)C(F)(F)F)s1 [Compound P7]
≥ 80%: percent effect (mortality or growth inhibition) at 200 ppm [3]

CCS(=O)(=O)c1cc(-c2ccc(-c3ccc(Cl)cc3)cc2)cnc1C(=O)N(C)c1nnc(C(F)(F)F)s1 [Compound P9]
≥ 80%: percent control (mortality, anti-feedant effect or growth inhibition) at 200 ppm [1] | percent effect (mortality or growth inhibition) at 200 ppm [2] | percent effect (mortality or growth inhibition) at 200 ppm [3]

CCS(=O)(=O)c1cc(-c2ccc(C(F)(F)F)cc2)cnc1C(=O)Nc1nnc(C(F)(F)C(F)(F)F)s1 [Compound P10]
≥ 80%: percent effect (mortality or growth inhibition) at 200 ppm [3]

CCS(=O)(=O)c1cc(-c2ccc(C(F)(F)F)cc2)cnc1C(=O)N(C)c1nnc(C(F)(F)C(F)(F)F)s1 [Compound P11]
≥ 80%: percent control (mortality, anti-feedant effect or growth inhibition) at 200 ppm [1] | percent effect (mortality or growth inhibition) at 200 ppm [2] | percent effect (mortality or growth inhibition) at 200 ppm [3] | mortality at 200 ppm [4]

CCS(=O)(=O)c1cc(-c2ccc(Cl)cc2)cnc1C(=O)Nc1nnc(C(F)(F)C(F)(F)F)s1 [Compound P13]
≥ 80%: percent effect (mortality or growth inhibition) at 200 ppm [2] | percent effect (mortality or growth inhibition) at 200 ppm [3]

CCS(=O)(=O)c1cc(-n2ccc(C(F)(F)F)n2)cnc1C(=O)N(C)c1nnc(C(F)(F)C(F)(F)F)s1 [Compound P15]
≥ 80%: percent control (mortality, anti-feedant effect or growth inhibition) at 200 ppm [1] | percent effect (mortality or growth inhibition) at 200 ppm [2] | percent effect (mortality or growth inhibition) at 200 ppm [3] | mortality at 200 ppm [4]

CCSc1cc(-n2ccc(C(F)(F)F)n2)cnc1C(=O)N(C)c1nnc(C(F)(F)F)s1 [Compound P16, 3-ethylsulfanyl-N-methyl-5-[3-(trifluoromethyl)pyrazol-1-yl]-N-[5-(trifluoromethyl)-1,3,4-thiadiazol-2-yl]pyridine-2-carboxamide]
≥ 80%: percent control (mortality, anti-feedant effect or growth inhibition) at 200 ppm [1] | percent effect (mortality or growth inhibition) at 200 ppm [3]

CCS(=O)(=O)c1cc(-n2ccc(C(F)(F)F)n2)cnc1C(=O)N(C)c1nnc(C(F)(F)F)s1 [Compound P17, 3-ethylsulfonyl-N-methyl-5-[3-(trifluoromethyl)pyrazol-1-yl]-N-[5-(trifluoromethyl)-1,3,4-thiadiazol-2-yl]pyridine-2-carboxamide]
≥ 80%: percent control (mortality, anti-feedant effect or growth inhibition) at 200 ppm [1] | percent effect (mortality or growth inhibition) at 200 ppm [2] | percent effect (mortality or growth inhibition) at 200 ppm [3] | mortality at 200 ppm [4]

CCS(=O)(=O)c1cc(-c2ccc(Cl)cc2)c[n+]([O-])c1C(=O)N(C)c1nnc(C(F)(F)F)s1 [Compound P19, 5-(4-chlorophenyl)-3-ethylsulfonyl-N-methyl-1-oxido-N-[5-(trifluoromethyl)-1,3,4-thiadiazol-2-yl]pyridin-1-ium-2-carboxamide]
≥ 80%: percent control (mortality, anti-feedant effect or growth inhibition) at 200 ppm [1] | percent effect (mortality or growth inhibition) at 200 ppm [2] | percent effect (mortality or growth inhibition) at 200 ppm [3] | mortality at 200 ppm [4]

CCS(=O)(=O)c1ccc(-c2ccc(C(F)(F)F)cc2)nc1C(=O)N(C)c1nnc(C(F)(F)F)s1 [Compound P21, 3-ethylsulfonyl-N-methyl-6-[4-(trifluoromethyl)phenyl]-N-[5-(trifluoromethyl)-1,3,4-thiadiazol-2-yl]pyridine-2-carboxamide]
≥ 80%: percent control (mortality, anti-feedant effect or growth inhibition) at 200 ppm [1] | percent effect (mortality or growth inhibition) at 200 ppm [2] | percent effect (mortality or growth inhibition) at 200 ppm [3]

CCS(=O)(=O)c1cc(-c2cccc(C#N)c2)cnc1C(=O)N(C)c1nnc(C(F)(F)F)s1 [Compound P23]
≥ 80%: percent control (mortality, anti-feedant effect or growth inhibition) at 200 ppm [1] | percent effect (mortality or growth inhibition) at 200 ppm [2] | percent effect (mortality or growth inhibition) at 200 ppm [3]

CCS(=O)(=O)c1cc(-c2cc(Cl)cc(Cl)c2)cnc1C(=O)N(C)c1nnc(C(F)(F)F)s1 [Compound P24]
≥ 80%: percent control (mortality, anti-feedant effect or growth inhibition) at 200 ppm [1] | percent effect (mortality or growth inhibition) at 200 ppm [2] | percent effect (mortality or growth inhibition) at 200 ppm [3]

CCS(=O)(=O)c1cc(-c2cc(Cl)c(F)c(Cl)c2)cnc1C(=O)N(C)c1nnc(C(F)(F)F)s1 [Compound P27]
≥ 80%: percent control (mortality, anti-feedant effect or growth inhibition) at 200 ppm [1] | percent effect (mortality or growth inhibition) at 200 ppm [2] | percent effect (mortality or growth inhibition) at 200 ppm [3]

CCS(=O)(=O)c1cc(-c2ccc(Cl)cc2Cl)cnc1C(=O)N(C)c1nnc(C(F)(F)F)s1 [Compound P34]
≥ 80%: percent control (mortality, anti-feedant effect or growth inhibition) at 200 ppm [1] | percent effect (mortality or growth inhibition) at 200 ppm [2] | percent effect (mortality or growth inhibition) at 200 ppm [3] | mortality at 200 ppm [4]

CCS(=O)(=O)c1cc(-c2ccc(Cl)c(Cl)n2)cnc1C(=O)N(C)c1nnc(C(F)(F)F)s1 [Compound P46]
≥ 80%: percent control (mortality, anti-feedant effect or growth inhibition) at 200 ppm [1] | percent effect (mortality or growth inhibition) at 200 ppm [2] | percent effect (mortality or growth inhibition) at 200 ppm [3]

CCS(=O)(=O)c1cc(-c2cccc(C#N)n2)cnc1C(=O)N(C)c1nnc(C(F)(F)F)s1 [Compound P50]
≥ 80%: percent control (mortality, anti-feedant effect or growth inhibition) at 200 ppm [1] | percent effect (mortality or growth inhibition) at 200 ppm [2] | percent effect (mortality or growth inhibition) at 200 ppm [3]

CCS(=O)(=O)c1cc(-c2ccc(C(F)(F)F)cn2)cnc1C(=O)N(C)c1nnc(C(F)(F)F)s1 [Compound P53]
≥ 80%: percent control (mortality, anti-feedant effect or growth inhibition) at 200 ppm [1] | percent effect (mortality or growth inhibition) at 200 ppm [2] | percent effect (mortality or growth inhibition) at 200 ppm [3]

CCS(=O)(=O)c1cc(-c2cncc(C(F)(F)F)c2)cnc1C(=O)N(C)c1nnc(C(F)(F)F)s1 [Compound P55]
≥ 80%: percent control (mortality, anti-feedant effect or growth inhibition) at 200 ppm [1] | percent effect (mortality or growth inhibition) at 200 ppm [3]

CCS(=O)(=O)c1cc(-c2ncc(C#N)cn2)cnc1C(=O)N(C)c1nnc(C(F)(F)F)s1 [Compound P63]
≥ 80%: percent control (mortality, anti-feedant effect or growth inhibition) at 200 ppm [1] | percent effect (mortality or growth inhibition) at 200 ppm [2] | percent effect (mortality or growth inhibition) at 200 ppm [3] | mortality at 200 ppm [4]
